Results as given in patent US8273794B2, “Compounds and compositions for delivering active agents” (Emisphere Technologies, Inc., priority 2004, dated 2012).
“And” between values parts separate entries of the source, which are not always exact repeats. Equal values may be shown once.

Legend:
[1] = Human recombinant insulin oral delivery in rats, whole blood glucose; assay type: in vivo, Sprague-Dawley rats; settings: oral (liquid dose), delivery agent compound dose 200 mg/kg, insulin dose 0.5 mg/kg
Description: (§1) Insulin (human recombinant) was obtained from ICN Biomedicals (Aurora, Ohio) as a bulk powder. To prepare stock solutions, insulin was dissolved in deionized water (pH˜6.5) to obtain a concentration of 15 mg/ml. Stock solutions were kept frozen at −20° C. in 1.0-ml aliquots until used. For dosing solutions, the delivery agent compound was dissolved in deionized water to obtain a final concentration of 200 mg/ml. The free acid form of delivery agent was converted to the sodium salt by adding one equivalent of sodium hydroxide. Solutions were vortexed, sonicated, and heated, and if necessary, additional sodium hydroxide was added in μl quantities to achieve uniform solubility. Solutions were adjusted to a pH of 3.5-8.5 by the addition of either hydrochloric acid or sodium hydroxide. Insulin stock (typically 66.7 μl) was then added to the delivery agent solution to obtain a final concentration of 0.5 mg/ml. After solubilization and drug addition, solutions were brought to final volume by the addition of deionized water.
(§2) Insulin was administered to male, Sprague-Dawley rats either alone or in combination with an Emisphere delivery agent by oral gavage (PO). Typically, rats were fasted for 18-24 hours prior to dosing. For dosing, a Rusch 8 French catheter was cut to 11 cm in length and adapted to fit a 1-ml syringe. The syringe was filled with dosing solution and the catheter was wiped dry of excess solution. The catheter was inserted into the rat mouth and fed down the esophagus (10.0 cm). The dosing solution was delivered by pressing the syringe plunger while holding the rat in an upright position.
In order to determine the pharmacodynamic response, a hand-held glucometer (OneTouch Ultra, LifeScan® (Johnson & Johnson, New Brunswick, N.J.)) was used to measure whole blood glucose after administration of insulin or insulin and delivery agent. Samples were collected either from the retroorbital sinus (see Sample collection and handling: Insulin) or from the tail artery (i.e. tail clip). For tail clipping, the tip of the tail was severed approximately 5 mm from the tip using a scalpel blade. After discarding the first drop of blood, a small sample (˜5-10 μl) was touched to the glucometer test strip (OneTouch Ultra, LifeScan) and a blood glucose reading was generated by the meter. For each subsequent sampling time point, the clot formed at the tip of the tail was broken up and a fresh sample was collected. Typically, samples were collected prior to dosing (time 0) and at 15, 30, 45, and 60 minutes after dosing.

[2] = Oral and intracolonic heparin delivery in rats, APTT; assay type: in vivo, Sprague-Dawley rats
Description: (§3) Oral gavage (PO) and/or intracolonic (IC) dosing solutions containing a delivery agent compound and heparin sodium USP in 25% aqueous propylene glycol were prepared. The sodium salt of the compound was used. Typically, delivery agent compound and heparin (about 166-182 IU/mg) were mixed by vortex as dry powders. This dry mixture was dissolved in 25% v/v aqueous propylene glycol, vortexed and placed in a sonicator (about 37° C.). The pH was adjusted to about 7 (6.5 to 8.5) with aqueous NaOH (2N). The dosing solution was sonicated to produce a clear solution. The final volume was adjusted to 3.0 mL. The final delivery agent compound dose, heparin dose and volume dose amounts are listed below in Table 6.
(§4) The typical dosing and sampling protocols were as follows. Male Sprague-Dawley rats weighing between 275-350 g were fasted for 24 hours and were anesthetized with ketamine hydrochloride (88 mg/kg) intramuscularly immediately prior to dosing. A dosing group of five rats was administered one of the dosing solutions. […] Solution was administered by pressing the syringe plunger. […] The dosing catheter was inserted into the colon through the anus until the tube was no longer visible. The dosing solution was injected slowly into the colon.
Citrated blood samples were collected by cardiac puncture following the administration of ketamine (88 mg/kg), typically at time—0.25, 0.5, 1.0 and 1.5 hours. Heparin activity was determined by utilizing the activated partial thromboplastin time (APTT) according to the method of Henry, J. B., Clinical Diagnosis and Management by Laboratory Methods, Philadelphia, Pa., W.B. Saunders (1979). Previous studied indicated baseline values of about 20 sec. Results from the five rats in each group were averaged for each time point. The maximum is reported below in Table 6.

[3] = Human recombinant insulin oral/intracolonic delivery in rats, serum insulin Cmax; assay type: in vivo, Sprague-Dawley rats
Description: as §1, §2
During blood sampling, rats were exposed briefly (˜10 sec) to carbon dioxide until prostrate, immediately prior to each sampling time point. For blood sampling, a 77-mm capillary tube was inserted into the retroorbital sinus. Typically, blood samples were collected prior to dosing (time 0) and at 15, 30, 45, and 60 minutes after dosing. Samples were collected into CAPIJECT® tubes (Terumo Corporation, Tokyo, Japan) containing a clot activator (red top, serum separator tubes). Samples were allowed to clot for ˜20 min at 4° C. After clotting, samples were centrifuged at 10,000 rpm for 4 minutes at 6° C. in order to separate the serum. Serum was collected into eppendorf tubes and frozen at −20° C. until assayed.

[4] = Intracolonic heparin delivery in rats, antifactor Xa; assay type: in vivo, Sprague-Dawley rats; settings: IC, volume 1 ml/kg, heparin dose 25 mg/kg
Description: as §3, §4

[5] = Human zinc insulin oral delivery in rats, blood glucose % change; assay type: in vivo, Sprague-Dawley rats; settings: delivery agent compound dose 200 mg/kg, human zinc insulin dose 0.5 mg/kg
[6] = PYY[3-36] liquid oral delivery in rats, serum PYY by radioimmunoassay; set-up: species or system Sprague-Dawley rats; settings: rat, in vivo
Description: Oral gavage (PO) dosing solutions of delivery agent compound and Peptide YY residues 3-36 (PYY[3-36]) (available from Bachem California Inc. of Torrance, Calif.) in deionized water were prepared as follows.
PYY [3-36] stock solution (80 mg/ml) was prepared with deionized water. Oral dosing compositions containing 200 mg/kg of delivery agent compound and 0.3 mg/kg of PYY in aqueous solution were prepared. A solution of the compound 23 is made with one equivalent to sodium hydroxide to convert the free acid delivery agent to its sodium salt.
Male Sprague-Dawley rats weighing between 240-320 g were fasted up to a maximum 24 hours before the experiments and administered ketamine (44 mg/kg) and thorazine (1.5 mg/kg) by intramuscular injection before the test article administration. Afterwards, the anesthetized animals were administered the test article by oral gavage.
Blood samples were collected serially from the tail artery, or by cardiac puncture, typically at time=0, 15, 30, 45, 60 and 90 minutes. Serum PYY concentrations were quantified using a PYY[3-36] radioimmunoassay (Catalog #RK-059-02 from Phoenix Pharmaceuticals, Inc., Belmont, Calif.). Results from the animals in each group were averaged for each time point. The maximum of these averages (i.e., the mean peak serum PYY[3-36] concentration ±standard deviation (SD)) is reported below in Table 2.

[7] = IC, volume 1 ml/kg, compound dose 50 mg/kg, heparin dose 25 mg/kg
[8] = oral (liquid dose), delivery agent compound dose 100 mg/kg, insulin dose 1 mg/kg

## CC(C)N(C(=O)CCCCCC(=O)O)c1ccccc1 [Compound 23, 7-[isopropyl(phenyl)amino]-7-oxoheptanoic acid]
other
  melting point: 62 to 63 °C

## CC(C)N(C(=O)CCCCC(=O)O)c1ccccc1 [Compound 24]
[1]
  Maximum % drop in glucose from control ± SD: −14.73 ± 17.64%

## CC(CC(=O)O)CC(=O)N(c1ccccc1)C(C)C (centres unmarked) [Compound 25]
[1]
  Maximum % drop in glucose from control ± SD: −14.81 ± 12.99%

## CCN(C(=O)CC(C)CC(=O)O)c1ccccc1 (centres unmarked) [Compound 26]
[1]
  Maximum % drop in glucose from control ± SD: −25.93 ± 14.86%

## CN(C(=O)CCCCCC(=O)O)c1ccccc1 [Compound 27]
[1]
  Maximum % drop in glucose from control ± SD: −25.40 ± 30.61%

## CC(CC(=O)O)CC(=O)N(C)c1ccccc1 (centres unmarked) [Compound 28]
[1]
  Maximum % drop in glucose from control ± SD: −11.41 ± 18.92%

## CN(C(=O)CCC(=O)O)c1ccc(Cl)cc1 [Compound 29]
[1]
  Maximum % drop in glucose from control ± SD: −29.25 ± 6.97%

## O=C(O)CCCCCCCCC(=O)c1ccccc1O [Compound 114, 10-(2-Hydroxy-phenyl)-10-oxo-decanoic acid]
[2]; [7]
  Mean Peak APTT (sec) ± SD: 42.90 ± 8.70 s
other
  melting point: 85 to 87 °C

## COc1ccc(C(=O)CCCC(=O)O)cc1 [Compound 116, 5-(4-Methoxy-phenyl)-5-oxo-pentanoic acid]
other
  melting point: 141 to 142 °C

## CC(CC(=O)O)NC(=O)c1ccccc1O (centres unmarked) [Compound 140, 3-(2-Hydroxy-benzoylamino)-butyric acid]
[2]; [7]
  Mean Peak APTT (sec) ± SD: 23.49 ± 6.12 s
[3]; [8]
  Cmax: Cmax = 81.16 ± 114.98 μIU/mL

## CC(CC(=O)O)NC(=O)c1cc(Br)cc(Br)c1O (centres unmarked) [Compound 141, 3-(3,5-Dibromo-2-hydroxy-benzoylamino)-butyric acid]
[2]; [7]
  Mean Peak APTT (sec) ± SD: 52.40 ± 21.54 s
[3]; [8]
  Cmax: Cmax = 204.05 ± 60.88 μIU/mL

## CC(CC(=O)O)NC(=O)c1cc(Cl)cc(Cl)c1O (centres unmarked) [Compound 142, 3-(3,5-Dichloro-2-hydroxy-benzoylamino)-butyric acid]
[3]; [8]
  Cmax: Cmax = 118.16 ± 72.75 μIU/mL

## CC(CC(=O)O)NC(=O)c1cc(I)cc(I)c1O (centres unmarked) [Compound 143, 3-(2-Hydroxy-3,5-diiodo-benzoylamino)-butyric acid]
[2]; [7]
  Mean Peak APTT (sec) ± SD: 114.69 ± 121.62 s

## CC(CC(=O)O)NC(=O)c1ccc(Cl)cc1O (centres unmarked) [Compound 145, 3-(4-Chloro-2-hydroxy-benzoylamino)-butyric acid]
[2]; [7]
  Mean Peak APTT (sec) ± SD: 134.42 ± 99.03 s
[3]; intracolonic, delivery agent compound dose 50 mg/kg, insulin dose 0.1 mg/kg
  Cmax: Cmax = 15.03 ± 7.80 μIU/mL
[3]; [8]
  Cmax: Cmax = 3.92 ± 5.62 μIU/mL

## CC(CC(=O)O)NC(=O)c1cc(C(C)C)cc(C(C)C)c1O (centres unmarked) [Compound 151, 3-(2-hydroxy-3,5-diisopropyl-benzoylamino)-butyric acid]
[2]; PO, volume 3 ml/kg, compound dose 300 mg/kg, heparin dose 100 mg/kg
  Mean Peak APTT (sec) ± SD: 252.09 ± 107.13 s
[4]; compound dose 25 mg/kg
  antifactor Xa (mean peak ± SD): 3.39 ± 3.07
[4]; compound dose 50 mg/kg
  antifactor Xa (mean peak ± SD): 2.36 ± 1.27

## O=C(O)Cc1ccccc1OCc1ccccc1 [Compound 152]
[5]
  Glucose (% control): −29.3%

## COc1ccc(C(=O)O)cc1OCc1ccccc1 [Compound 153]
[5]
  Glucose (% control): −7.1%

## Cc1cc(C(=O)O)cc(C)c1OCc1ccccc1 [Compound 154]
[5]
  Glucose (% control): −7.9%

## O=C(O)Cc1ccc(OCc2ccccc2)cc1 [Compound 158]
other
  melting point: 110 to 112 °C

## O=C(O)CCCCCOc1ccccc1C(=O)c1ccccc1O [Compound 160, 6-(2-(2-Hydroxybenzoyl)phenoxy)hexanoic acid]
[2]; [7]
  Mean Peak APTT (sec) ± SD: 131 ± 154 s
other
  melting point: 67 to 70 °C
[3]; oral (liquid dose), delivery agent compound dose 200 mg/kg, insulin dose 0.5 mg/kg
  Cmax: Cmax = 74 ± 7.5 μIU/mL

## COc1ccc(OCCCC(=O)O)c(C(=O)c2ccccc2O)c1 [Compound 165]
[1]
  Maximum % drop in glucose from control ± SD: −33.0%

## O=C(O)CCCOc1ccccc1C(=O)c1ccccc1O [Compound 166, 4-(2-(2-Hydroxybenzoyl)phenoxy)butyric acid]
[1]
  Maximum % drop in glucose from control ± SD: −5.7%

## Cc1ccc(OCCCC(=O)O)c(C(=O)c2ccccc2Cl)c1 [Compound 167, 4-(2-Chlorobenzoyl-4-methylphenoxy)butyric acid]
[1]
  Maximum % drop in glucose from control ± SD: −21.2% and −17.7% and −26.2% and −17.8% and −22.7%

## O=C(O)CCCCCCCCCCOc1ccccc1OCc1ccccc1 [Compound 177, 11-(2-Benzyloxyphenoxy)undecanoic acid]
other
  melting point: 62 to 63 °C

## O=C(O)CCCCOc1ccc(OCc2ccccc2)cc1 [Compound 178, 5-(4-Benzyloxy-phenoxy)-pentanoic acid]
other
  melting point: 127 to 128 °C

## PYY[3-36]: Peptide YY residues 3-36, available from Bachem California Inc.; the active agent, dosed alone
[6]
  PYY[3-36] detected in blood: No significant PYY[3-36] was detected
